Assay results taken from patent US11117900B2 (Vertex Pharmaceuticals Incorporated, priority 2012, dated 2021).

What follows are compounds tested on HCT116 colorectal cancer cells (assay: Cisplatin sensitization assay (96 h MTS cell viability)). Conditions: Cisplatin sensitization value.
Assay type: cell-based
Method in brief: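 HCT116 cells were dosed simultaneously with compound and cisplatin as a full matrix of 2-fold serial dilutions from 10 μM top final concentration. Incubation was 96 h at 37° C., 5% CO2, followed by 1 h with MTS reagent for the viability read-out. Sensitization values were binned into +++, ++ and + categories.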
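Also: compound concentration needed to lower the IC50 of Cisplatin alone by a set fold.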

Question: Which “Cisplatin Sensitization Assay” value does the source give for `Nc1nn2cc(F)cnc2c1C(=O)Nc1cnccc1N1CCN2C(=O)CC[C@H]2C1` [I-N-217, (S)-2-amino-6-fluoro-N-(4-(6-oxohexahydropyrrolo[1,2-a]pyrazin-2(1H)-yl)pyridin-3-yl)pyrazolo[1,5-a]pyrimidine-3-carboxamide] here?
Answer: ++ (Compounds with a Cisplatin sensitization value >0.02 μM but <0.2 μM are marked with “++.”)

Question: `Cc1nc(C)n(-c2ccncc2NC(=O)c2c(N)nn3cc(F)cnc23)n1` [I-N-218, 2-amino-N-(4-(3,5-dimethyl-1H-1,2,4-triazol-1-yl)pyridin-3-yl)-6-fluoropyrazolo[1,5-a]pyrimidine-3-carboxamide] was tested. Which “Cisplatin Sensitization Assay” value did it give?
Answer: + (Compounds with a Cisplatin sensitization value >0.2 μM but <5 μM are marked with “+.”)

Question: Which “Cisplatin Sensitization Assay” value does the source give for `Nc1nn2cc(F)cnc2c1C(=O)Nc1cnccc1-n1ccnc1C(F)(F)F` [I-N-219, 2-amino-6-fluoro-N-(4-(2-(trifluoromethyl)-1H-imidazol-1-yl)pyridin-3-yl)pyrazolo[1,5-a]pyrimidine-3-carboxamide] here?
Answer: +++ (Compounds with a Cisplatin sensitization value of <0.02 μM are marked with “+++.”)

Question: With `CC1(C)CCCN1c1ccncc1NC(=O)c1c(N)nn2cc(F)cnc12` [I-N-220, 2-amino-N-(4-(2,2-dimethylpyrrolidin-1-yl)pyridin-3-yl)-6-fluoropyrazolo[1,5-a]pyrimidine-3-carboxamide] as the compound, how does the “Cisplatin Sensitization Assay” value read?
Answer: ++ (Compounds with a Cisplatin sensitization value >0.02 μM but <0.2 μM are marked with “++.”)

Question: `CS(=O)(=O)C1CCCN(c2ccncc2NC(=O)c2c(N)nn3cc(F)cnc23)C1` (centres unmarked) [I-N-221, 2-amino-6-fluoro-N-(4-(3-(methylsulfonyl)piperidin-1-yl)pyridin-3-yl)pyrazolo[1,5-a]pyrimidine-3-carboxamide] was tested. Which “Cisplatin Sensitization Assay” value did it give?
Answer: ++ (Compounds with a Cisplatin sensitization value >0.02 μM but <0.2 μM are marked with “++.”)

Question: For `Nc1nn2cc(F)cnc2c1C(=O)Nc1cnccc1N1CC(=O)N2CCCC2C1` (centres unmarked) [I-N-222, 2-amino-6-fluoro-N-(4-(4-oxohexahydropyrrolo[1,2-a]pyrazin-2(1H)-yl)pyridin-3-yl)pyrazolo[1,5-a]pyrimidine-3-carboxamide], which “Cisplatin Sensitization Assay” value is on record?
Answer: ++ (Compounds with a Cisplatin sensitization value >0.02 μM but <0.2 μM are marked with “++.”)

Question: For `Cc1ccnn1-c1ccncc1NC(=O)c1c(N)nn2cc(F)cnc12` [I-N-223, 2-amino-6-fluoro-N-(4-(5-methyl-1H-pyrazol-1-yl)pyridin-3-yl)pyrazolo[1,5-a]pyrimidine-3-carboxamide], which “Cisplatin Sensitization Assay” value is on record?
Answer: ++ (Compounds with a Cisplatin sensitization value >0.02 μM but <0.2 μM are marked with “++.”)

Question: With `CN1C[C@@H]2CCN(c3ccncc3NC(=O)c3c(N)nn4cc(F)cnc34)C[C@@H]2C1=O` [I-N-224, 2-amino-6-fluoro-N-(4-((3aR,7aR)-2-methyl-3-oxohexahydro-1H-pyrrolo[3,4-c]pyridin-5(6H)-yl)pyridin-3-yl)pyrazolo[1,5-a]pyrimidine-3-carboxamide] as the compound, how does the “Cisplatin Sensitization Assay” value read?
Answer: + (Compounds with a Cisplatin sensitization value >0.2 μM but <5 μM are marked with “+.”)

Question: For `Cc1ccn(-c2ccncc2NC(=O)c2c(N)nn3cc(F)cnc23)n1` [I-N-225, 2-amino-6-fluoro-N-(4-(3-methyl-1H-pyrazol-1-yl)pyridin-3-yl)pyrazolo[1,5-a]pyrimidine-3-carboxamide], which “Cisplatin Sensitization Assay” value is on record?
Answer: ++ (Compounds with a Cisplatin sensitization value >0.02 μM but <0.2 μM are marked with “++.”)

Question: How did the “Cisplatin Sensitization Assay” value turn out when `Nc1nn2cc(F)cnc2c1C(=O)Nc1cnccc1N1CCC2(CC1)COC2` [I-N-226, N-(4-(2-oxa-7-azaspiro[3.5]nonan-7-yl)pyridin-3-yl)-2-amino-6-fluoropyrazolo[1,5-a]pyrimidine-3-carboxamide] was run?
Answer: +++ (Compounds with a Cisplatin sensitization value of <0.02 μM are marked with “+++.”)

Question: `CN1CCOCC1C(=O)N1CCN(c2c(F)cncc2NC(=O)c2c(N)nn3cc(F)cnc23)CC1` (centres unmarked) [I-N-227, 2-amino-6-fluoro-N-(5-fluoro-4-(4-(4-methylmorpholine-3-carbonyl)piperazin-1-yl)pyridin-3-yl)pyrazolo[1,5-a]pyrimidine-3-carboxamide] was tested. Which “Cisplatin Sensitization Assay” value did it give?
Answer: +++ (Compounds with a Cisplatin sensitization value of <0.02 μM are marked with “+++.”)

Question: For `Nc1nn2cc(F)cnc2c1C(=O)Nc1cncc(F)c1N1CCN(CC(=O)N2CCC2)CC1` [I-N-228, 2-amino-N-(4-(4-(2-(azetidin-1-yl)-2-oxoethyl)piperazin-1-yl)-5-fluoropyridin-3-yl)-6-fluoropyrazolo[1,5-a]pyrimidine-3-carboxamide], which “Cisplatin Sensitization Assay” value is on record?
Answer: +++ (Compounds with a Cisplatin sensitization value of <0.02 μM are marked with “+++.”)

Question: `CN1CC2(CCN(c3c(F)cncc3NC(=O)c3c(N)nn4cc(F)cnc34)CC2)OC1=O` [I-N-229, 2-amino-6-fluoro-N-(5-fluoro-4-(3-methyl-2-oxo-1-oxa-3,8-diazaspiro[4.5]decan-8-yl)pyridin-3-yl)pyrazolo[1,5-a]pyrimidine-3-carboxamide] was tested. Which “Cisplatin Sensitization Assay” value did it give?
Answer: +++ (Compounds with a Cisplatin sensitization value of <0.02 μM are marked with “+++.”)

Question: How did the “Cisplatin Sensitization Assay” value turn out when `Nc1nn2cc(F)cnc2c1C(=O)Nc1cnccc1N1CCC(N2CCCC2=O)CC1` [I-N-230, 2-amino-6-fluoro-N-(4-(4-(2-oxopyrrolidin-1-yl)piperidin-1-yl)pyridin-3-yl)pyrazolo[1,5-a]pyrimidine-3-carboxamide] was run?
Answer: +++ (Compounds with a Cisplatin sensitization value of <0.02 μM are marked with “+++.”)

Question: How did the “Cisplatin Sensitization Assay” value turn out when `CN1CC2(CCC1=O)CCN(c1ccncc1NC(=O)c1c(N)nn3cc(F)cnc13)CC2` [I-N-231, 2-amino-6-fluoro-N-(4-(2-methyl-3-oxo-2,9-diazaspiro[5.5]undecan-9-yl)pyridin-3-yl)pyrazolo[1,5-a]pyrimidine-3-carboxamide] was run?
Answer: +++ (Compounds with a Cisplatin sensitization value of <0.02 μM are marked with “+++.”)

Question: `Nc1nn2cc(F)cnc2c1C(=O)Nc1cncc(F)c1N1CC(=O)N2CCCC2C1` (centres unmarked) [I-N-232, 2-amino-6-fluoro-N-(5-fluoro-4-(4-oxohexahydropyrrolo[1,2-a]pyrazin-2(1H)-yl)pyridin-3-yl)pyrazolo[1,5-a]pyrimidine-3-carboxamide] was tested. Which “Cisplatin Sensitization Assay” value did it give?
Answer: ++ (Compounds with a Cisplatin sensitization value >0.02 μM but <0.2 μM are marked with “++.”)

Question: For `CN1CCN2CCN(c3ccncc3NC(=O)c3c(N)nn4cc(F)cnc34)CC2C1=O` (centres unmarked) [I-N-233, 2-amino-6-fluoro-N-(4-(8-methyl-9-oxohexahydro-1H-pyrazino[1,2-a]pyrazin-2(6H)-yl)pyridin-3-yl)pyrazolo[1,5-a]pyrimidine-3-carboxamide], which “Cisplatin Sensitization Assay” value is on record?
Answer: ++ (Compounds with a Cisplatin sensitization value >0.02 μM but <0.2 μM are marked with “++.”)

Question: For `CN(C)C(=O)C1CN(c2ccncc2NC(=O)c2c(N)nn3cc(F)cnc23)CCO1` (centres unmarked) [I-N-234, 4-(3-(2-amino-6-fluoropyrazolo[1,5-a]pyrimidine-3-carboxamido)pyridin-4-yl)-N,N-dimethylmorpholine-2-carboxamide], which “Cisplatin Sensitization Assay” value is on record?
Answer: + (Compounds with a Cisplatin sensitization value >0.2 μM but <5 μM are marked with “+.”)

Question: `CN1C(=O)CCC12CCN(c1ccncc1NC(=O)c1c(N)nn3cc(F)cnc13)CC2` [I-N-235, 2-amino-6-fluoro-N-(4-(1-methyl-2-oxo-1,8-diazaspiro[4.5]decan-8-yl)pyridin-3-yl)pyrazolo[1,5-a]pyrimidine-3-carboxamide] was tested. Which “Cisplatin Sensitization Assay” value did it give?
Answer: ++ (Compounds with a Cisplatin sensitization value >0.02 μM but <0.2 μM are marked with “++.”)

Question: `CN1CC2(CCN(c3ccncc3NC(=O)c3c(N)nn4cc(F)cnc34)CC2)CC1=O` [I-N-236, 2-amino-6-fluoro-N-(4-(2-methyl-3-oxo-2,8-diazaspiro[4.5]decan-8-yl)pyridin-3-yl)pyrazolo[1,5-a]pyrimidine-3-carboxamide] was tested. Which “Cisplatin Sensitization Assay” value did it give?
Answer: +++ (Compounds with a Cisplatin sensitization value of <0.02 μM are marked with “+++.”)

Question: With `Cc1cncc(NC(=O)c2c(N)nn3cc(F)cnc23)c1-n1nccc1C` [I-N-237] as the compound, how does the “Cisplatin Sensitization Assay” value read?
Answer: + (Compounds with a Cisplatin sensitization value >0.2 μM but <5 μM are marked with “+.”)

Question: With `Nc1nn2cc(F)cnc2c1C(=O)Nc1cnccc1N1CCN2C(=O)OCC2C1` (centres unmarked) [I-N-238, 2-amino-6-fluoro-N-(4-(3-oxotetrahydro-1H-oxazolo[3,4-a]pyrazin-7(3H)-yl)pyridin-3-yl)pyrazolo[1,5-a]pyrimidine-3-carboxamide] as the compound, how does the “Cisplatin Sensitization Assay” value read?
Answer: ++ (Compounds with a Cisplatin sensitization value >0.02 μM but <0.2 μM are marked with “++.”)

Question: With `Nc1nn2cc(F)cnc2c1C(=O)Nc1cncc(F)c1N1CCC2(CC1)COC2` [I-N-239, 2-amino-6-fluoro-N-(5-fluoro-4-(2-oxa-7-azaspiro[3.5]nonan-7-yl)pyridin-3-yl)pyrazolo[1,5-a]pyrimidine-3-carboxamide] as the compound, how does the “Cisplatin Sensitization Assay” value read?
Answer: +++ (Compounds with a Cisplatin sensitization value of <0.02 μM are marked with “+++.”)

Question: Which “Cisplatin Sensitization Assay” value does the source give for `CN1CCN2CCN(c3c(F)cncc3NC(=O)c3c(N)nn4cc(F)cnc34)CC2C1=O` (centres unmarked) [I-N-240, 2-amino-6-fluoro-N-(5-fluoro-4-(8-methyl-9-oxohexahydro-1H-pyrazino[1,2-a]pyrazin-2(6H)-yl)pyridin-3-yl)pyrazolo[1,5-a]pyrimidine-3-carboxamide] here?
Answer: ++ (Compounds with a Cisplatin sensitization value >0.02 μM but <0.2 μM are marked with “++.”)

Question: How did the “Cisplatin Sensitization Assay” value turn out when `Nc1nn2cc(F)cnc2c1C(=O)Nc1cnccc1N1CCC(c2ncon2)CC1` [I-N-241, N-(4-(4-(1,2,4-oxadiazol-3-yl)piperidin-1-yl)pyridin-3-yl)-2-amino-6-fluoropyrazolo[1,5-a]pyrimidine-3-carboxamide] was run?
Answer: +++ (Compounds with a Cisplatin sensitization value of <0.02 μM are marked with “+++.”)

Question: For `Cc1ncnn1-c1c(F)cncc1NC(=O)c1c(N)nn2cc(F)cnc12` [I-N-242, 2-amino-6-fluoro-N-(5-fluoro-4-(5-methyl-1H-1,2,4-triazol-1-yl)pyridin-3-yl)pyrazolo[1,5-a]pyrimidine-3-carboxamide], which “Cisplatin Sensitization Assay” value is on record?
Answer: + (Compounds with a Cisplatin sensitization value >0.2 μM but <5 μM are marked with “+.”)
